Experimental data as given in US20220409510A1, “Polypeptides And Methods For Improving Skin Conditions” (Interk Peptide Therapeutics Limited, priority 2018, published 2022).
Non-standard residues stand in square brackets, D forms with d. No end group written: not given here.

Experiments:
[1] = system: wound (skin punch, ID 12 mm); test: Murine wound model, percentage closure of the wound; assay type: in vivo, ICR mice; settings: topical 10 ug per mouse daily for 10 consecutive days
From the text: FIGS. 1 and 2 illustrate the effect of polypeptides IK34720 (SEQ ID NO: 3—RSKAKNPLYRRRRRRRRR) (FIG. 1) and the dextro-reverso sequence IK236770 (SEQ ID NO: 4—rrrrrrrrrylpnkaksr) (FIG. 2), on wound healing over 10 days in a murine wound model in accordance with the following protocol.
Three groups of 8 male ICR mice with a mean weight of 22 g (±2 g) were used in the present study. The animals were housed in individual cages during the study. Under isoflurane gas anaesthesia, the shoulder and back region of each animal was shaved and a sharp punch (ID 12 mm) was used to induce a wound by removing the skin, including panniculus carnosus and adherent tissues on Day 1.
Following induction of the wound the polypeptides IK34720 and IK236770 were topically administered to the site of the wound at a dosage of 10 μg per animal. […] An additional group which comprised the administration of Phosphate buffered Saline (PBS) at pH 7.4 was used as a negative control.
The wound healing was analysed on Days 5, 7, 9 and 11 by tracing the periphery of the wound onto clear plastic sheets with the wound area calculated by an Image analyzer ProPlus (Media Cybernetics, Version 4.5.0.29. The percentage closure of the wound (%) was calculated. Percentage closure of the wound was determined on 5, 7, 9 and 11. ANOVA and Dunnett's test were applied to test significant significance between the treated groups (peptide and positive control groups) and the negative control group at each time point of measurement. Differences were considered statistically significant at P<0.05, and are indicated by *.

[2] = system: CPDs in human skin explants; test: CPD formation in human skin explants after UV-irradiation; assay type: cell-based; settings: 3 hrs post irradiation/treatment; Calcitriol 1 nM; IK34720 50, 250 or 500 uM; FIG. 12
Method: Human skin removed at elective surgery was cleaned, dissected and cut into pieces of approx. 5 mm×5 mm. Each piece was placed in a well of a 96 well plate, with individual plates prepared to assess the effects 3 hrs post treatment. All samples were performed in triplicate for each treatment. Skin was subjected to UV-radiation from solar-simulated UV source for 1.5 h (UVR), or non-irradiation (SHAM). Given that human skin is thicker than mouse skin, human skin explants were exposed to a radiation dose three times higher than that used for mouse skin, i.e., 20 J/cm2 versus 7 J/cm2, respectively, and the output spectrum of the laboratory solar simulator has previously been reported (Rybchyn MS et al, J Invest Dermatol. 2018 May; 138(5):1146-1156) and treated immediately after with a vehicle control, Calcitriol (1 nM) or the polypeptide IK34720 (SEQ ID NO: 3) at concentrations of 50 μM, 250 μM or 500 uM.
Samples harvested at 3 hrs were fixed, section, stained and quantified as described in Example 5.

[3] = system: MMP1; test: MMP1 expression in human skin explants after UV-irradiation (immunohistochemistry); assay type: cell-based; settings: 3 hrs post irradiation/treatment; Calcitriol 1 nM; IK34720 50, 250 or 500 uM; FIG. 17
Method: The effect of the polypeptide IK34720 (SEQ ID NO: 3) on MMP-1 activity in human skin was evaluated using the following protocol.
FIGS. 17 and 18 illustrate the effect of the polypeptide IK34720 (SEQ ID NO: 3) on MMP1 expression, in accordance with the following protocol.
Human skin (2× human explant tissues) removed at elective surgery was cleaned, dissected and cut into pieces of approx. 5mm×5mm. Each piece was placed in a well of a 96 well plate, with individual plates prepared to assess the effects 3 hrs post treatment. Skin was subjected to UV-radiation from solar-simulated UV source for 1.5 h (UVR), or non-irradiation (SHAM), and treated immediately after with a vehicle control, Calcitriol (1 nM) or the polypeptide IK34720 (SEQ ID NO: 3) at concentrations of 50 μM, 250 μM or 500 uM. In FIG. 17, IK50, IK250 and IK500 as μM concentrations refers to 15 μg, 75 μg and 150 μg of IK34720 per 120 μL culture medium/explant, respectively.
Samples harvested at 3 hrs were fixed, sectioned, immunohistochemically stained for MMP1 and quantified for MMP1 expression, by expressing epidermal area stained for MMP1 as a function of total epidermal area examined.

[4] = system: dermal fibroblasts; test: TBARS lipid peroxidation assay in UV irradiated dermal fibroblasts; assay type: cell-based; settings: highest concentration (5 μM) of peptide; FIG. 19
Method: The ability of the polypeptide RSKAKNPLYRRRRRRRRR to alter UV-induced oxidative damage of cell-derived lipids was examined using the TBARS thiobarbituric acid-reactive substances (TBARS) lipid peroxidation assay.
After irradiation or sham-irradiation of dermal fibroblasts, supernatants (900 μL) were collected. In brief, 90 μL of butylated hydroxytoluene (2% w/w in ethanol) was added and samples kept frozen (−20° C.) until the TBARS assay. Petri dishes were washed twice with 1 mL of HBSS, cells scraped in 600 μL of water and 60 μL of 0.5% aqueous Triton X100 added to this solution, for protein determination carried out by the Lowry method (Lowry OH et al, J. Biol. Chem., 1951, 193:265-275). TBARS were fluorometrically assayed as described (Morlière P et al, Biochim. Biophys. Acta, 1991, 1084:261-268). Briefly, thawing samples were heated in the presence of thiobarbituric acid in acidic conditions, and TBARS extracted with 1-butanol and fluorometrically quantified (λexc=515 nm and λem=550 nm). Tetraethoxypropane, which quantitatively yields the malondialdehyde-thiobarbituric acid adduct in the assay conditions, was used for calibration. TBARS values, expressed in malondialdehyde (MDA) equivalents, were normalized to the cell protein for each Petri dish. Each TBARS determination was performed in triplicate (e.g., with three Petri dishes per data point).

[5] = biological target: T1, polypeptide IK34720 (RSKAKNPLYRRRRRRRRR)
T1 chain: RSKAKNPLYRRRRRRRRR

CCNC(=O)[C@H]1O[C@@H](n2cnc3c(N)nc(NCCc4ccc(CCC(=O)O)cc4)nc32)[C@H](O)[C@@H]1O [CGS-21680, reference compound]
wound closure percentage ([1]; Day 5 to Day 11, vs negative control (PBS)): increase wound healing compared to the negative control

C=C1/C(=C\C=C2/CCC[C@]3(C)[C@@H]([C@H](C)CCCC(C)(C)O)CC[C@@H]23)C[C@@H](O)C[C@@H]1O [Calcitriol, 1,25-dihydroxyvitamin D3, reference compound]
cells having CPDs (stained cells) [2]: fewer stained cells
cells staining for MMP-1 [3]: fewer stained cells
significant difference in TRS (TBA reactive substances) between Sham and UV irradiation [4]: not seen

rrrrrrrrrylpnkaksr ([dR][dR][dR][dR][dR][dR][dR][dR][dR][dY][dL][dP][dN][dK][dA][dK][dS][dR]; also: retro-inverso) [IK236770]
wound healing (wound closure % percentage) ([1]; day 5, vs negative control): statistically significant increase in wound healing

B1: Human rheumatoid synovial fibroblast MMP-1 proenzyme, activated with APMA (protein)
chain: FVLTEGNPRWEQTHLTYRIENYTPDLPRADVDHAIEKAFQLWSNVTPLTFTKVSEGQADIMISFVRGDHRDNSPFDGPGGNLAHAFQPGPGIGGDAHFDEDERWTNNFREYNLHRVAAHELGHSLGLSHSTDIGALMYPSYTFSGDVQLAQDDIDGIQAIYGRSQNPVQPIGPQTPKACDSKLTFDAITTIRGEVMFFKDRFYMRTNPFYPEVELNFISVFWPQLPNGLEAAYEFADRDEVRFFKGNKYWAVQGQNVLHGYPKDIYSSFGFPRTVKHIDAALSEENTGKTYFFVANKYWRYDEYKRSMDPGYPKMIAHDFPGIGHKVDAVFMKDGFFYFFHGTRQYKFDPKTKRILTLQKANSWFNCRKN
MMP-1 activity in vitro: amount of Mca-Pro-Leu-Gly formed from the fluorogenic substrate Mca-Pro-Leu-Gly-Leu-Dap-Ala-Arg, read spectrofluorimetrically at 340 nm/400 nm [5]: inhibits MMP-1 activation in a dose dependent manner
